A short description of series [1]: Midgut permeation assay (Ussing chamber). It is filed as in vitro ADME, Manduca sexta. The following applies: 10 µM in luminal fluid, separate occasion / different batch of M. sexta, comparison with 1,4-SeSe-Hv1a, 1 h at 30 °C, HPLC/ELISA/MALDI-TOF MS, mean ± S.E.M, n = 11–12 tissues. (In general: An ELISA detects its analyte on a solid surface through an enzyme-linked reagent.)
Procedure: Flat-sheet preparations of the anterior midgut of Manduca sexta were mounted in Ussing-type chambers as previously described [39]. The lumen to hemolymph flux was determined by applying various concentrations of peptide (0.1, 1, and 10 μM) to the luminal side of the tissue and taking aliquots of saline from the hemolymph side after 1 h incubation at 30 °C (n = 9–19 tissues per peptide and dose). […] To check for damage to gut tissues that would allow leakage of peptides through the tissues, 1% amaranth, which is not absorbed across gut epithelia, was added to the luminal side of the tissue. Samples were analysed using a combination of liquid chromatography, enzyme-linked immunosorbent assay (ELISA), and matrix-assisted laser desorption/ionisation time-of-flight mass spectrometry (MALDI-TOF MS) to quantify the amount of intact peptide present on the hemolymph side of the tissue [39].
Chromatography was performed using a Beckman System Gold chromatographic system (Beckman Coulter Ltd., High Wycombe, UK) consisting of a dual pump programmable solvent module 126 and System Gold UV detector module 166. […] Samples were eluted using a linear gradient of 10–60% ACN/0.1% TFA over 50 min at a flow rate of 0.2 mL/min, and elution monitored at 214 nm. […] Absorbance was converted to peptide concentration using standard curves. […]

Series [2] is described as follows: Susceptibility to scrambling of Hv1a and diselenide analogs (buffer with or without GSH). The following applies: for susceptibility to scrambling in the presence of GSH: 1 equivalent GSH; for Correctly Folded Toxin, In Buffer, pH 7.2: 45 μL of 250 μM peptide + 45 μL 0.1 M phosphate buffer pH 7.2, 24 h; for Correctly Folded Toxin, In Buffer, pH 7.2 / Correctly Folded Toxin, With 1 Equivalent GSH, pH 7.2: quenched with 1% TFA, analytical RP-HPLC; for Correctly Folded Toxin, With 1 Equivalent GSH, pH 7.2: 45 μL of 250 μM peptide + 45 μL 0.1 M phosphate buffer pH 7.2 containing 250 μM GSH, 24 h. It is filed as physicochemical. How it is done: Peptide (45 μL of a 250 μM solution) was combined with either 45 μL of buffer (0.1 M phosphate buffer, pH 7.2) or 45 μL of buffer containing 250 μM GSH. After 24 h, the reaction was quenched with 1% TFA and the solution analysed using analytical RP-HPLC.

Series [3] has as its system sheep blowflies (Lucilia cuprina). The series is described as follows: Blowfly toxicity assay, injection. Type of series: in vivo. Conditions: injected into ventro-lateral thoracic region, lethality after 24 h; three tests, n = 10 flies per dose. How it is done: Injection assays using sheep blowflies (Lucilia cuprina) were performed as described. Briefly, peptides were dissolved in insect-saline and injected into the ventro-lateral thoracic region of blowflies (mass 16.5–27.0 mg). Thereafter, flies were individually housed in 2 mL tubes and lethality determined after 24 h.
(§1) Tests for oral toxicity in blowflies were performed as described. In short, peptides were dissolved in 5% sucrose and 3 μL of this solution was applied to the inside of a 2 mL tube containing a single fly (mass 16.8–25.3 mg). Flies were kept in the tube overnight without additional food or water until the sucrose solution was consumed. Thereafter, flies were transferred into 250 mL plastic containers and provided with a sugar cube and wet cotton wool. Each box housed 10 flies that received the same treatment. Oral toxicity was determined three days after the oral application. For both injection and oral toxicity assays, three tests were carried for each peptide, and for each test several doses of peptide (n = 10 flies per dose) were used along with appropriate controls (i.e., insect saline or 5% sucrose solution; n = 20–40). LD50 values were calculated as described previously.

For series [4] the test system is unchanged. The series can be described thus: Blowfly toxicity assay, oral. Type of series: in vivo. Conditions: feeding to sheep blowflies; full dose-response curves not determined (Figure 4). As for the experimental part:
as §1

For a further series, the system named is Sarcophaga flesh flies. Conditions: cited from earlier work.
[5] abbreviates: 0.1 M phosphate buffer pH 7.2, 24 h, RP-HPLC.

[C4U,C18U]-Hv1a [1,4-SeSe-Hv1a]: the “Lumen to Hemolymph Flux” value in series [1] came to 227 ± 14 pmol/cm^2/h. Also, the “susceptibility to scrambling in the presence of GSH” value (from here on “susceptibility to scrambling”) in series [2] (setting [5]) is “only weakly prone to scrambling”. Further, in series [2], the “Correctly Folded Toxin, In Buffer, pH 7.2” value amounted to 100% and the “Correctly Folded Toxin, With 1 Equivalent GSH, pH 7.2” value was 85%. Further, the “LD50, injection into sheep blowflies” value in series [3] was found to be 407 ± 22 pmol/g.

In the case of [C11U,C22U]-Hv1a [2,5-SeSe-Hv1a], in series [2] (setting [5]), the “susceptibility to scrambling” value was “only weakly prone to scrambling”. In series [2], the “Correctly Folded Toxin, In Buffer, pH 7.2” value turned out to be 100% and the “Correctly Folded Toxin, With 1 Equivalent GSH, pH 7.2” value was determined as 82%. Besides, in series [3], the “LD50, injection into sheep blowflies” value is reported as 455 ± 35 pmol/g.

Regarding [C17U,C36U]-Hv1a [3,6-SeSe-Hv1a], in series [2] (setting [5]), the “stability in neutral media” value is on record as “marginal instability” and the “susceptibility to scrambling” value is “more susceptible to scrambling”. Also, in series [2], the “Correctly Folded Toxin, In Buffer, pH 7.2” value was found to be 95% and the “Correctly Folded Toxin, With 1 Equivalent GSH, pH 7.2” value came out at 60%. In series [3], the “LD50, injection into sheep blowflies” value worked out at 446 ± 12 pmol/g. In addition, the “oral activity compared with native Hv1a” value in series [4] is recorded as “significantly lower than native Hv1a”.

B1: AaIT: scorpion toxin AaIT (peptide, UniProt P01497 19-88, looked up)
Beta-insect excitatory toxin 1: KKNGYAVDSSGKAPECLLSNYCNNECTKVHYADKGYCCLLSCYCFGLNDDKKVLEISDTRKSYCDTTIIN
For the molecule B1, the “ratio oral vs. injection LD50” value in the series with Sarcophaga flesh flies is reported as 714.
